Article PMC9320560, “Structure-Based Identification and Biological Characterization of New NAPRT Inhibitors” (Pharmaceuticals, 2022)
“Also recorded” adds a separate entry of the source.

Experiments:
[1] = system: intracellular NAD+ levels in OVCAR-5 cells; assay: Intracellular NAD+ quantification (enzyme cycling assay); type: cell-based; conditions: for interaction with FK866 in NAD+ reduction / drop in NAD+ levels: test compound 100 µM + 30 nM FK866, 20 h
Method: The assay that was performed on OVCAR-5 cell viability led to a set of potential NAPRT inhibitors, namely IM 29, IM 38, IM 43, IM 49, MMB-128, MMB-131, MMB-268, and MMB-312. In order to confirm that the cited compounds sensitized OVCAR-5 cells to the NAMPT inhibitor FK866 by interfering with NAD biosynthesis, we quantified the intracellular NAD^+ levels in OVCAR-5 cells after 20-h treatments with these compounds with or without FK866.
Figure 3 A subset of test compounds cooperates synergistically with FK866 in decreasing intracellular NAD^+ levels in OVCAR-5 cells. The compounds were administered to cells alone or in combination with FK866 for 20 h. Quantification of NAD^+ was performed via an enzyme cycling assay and normalized to cell lysate protein content. The results are the mean ± SD of two technical replicates with two biological replicates each. *, p < 0.05; **, p < 0.01; ***, p < 0.001 vs. the respective control, i.e., FK866-untreated control for the test compounds that were administered alone to cells, and FK866-treated control for the combinations of test compound and FK866; §, p < 0.05 versus FK866-untreated, control cells.
A total of 1 × 10^5 OVCAR-5 cells/well were plated in 24-well plates in the regular culture medium. 24 h later the cell medium was removed and the cells were cultured either in the regular medium that was supplemented with 0.3 µM nicotinic acid (control wells) or in the treatment medium (regular medium with 0.3 µM nicotinic acid and combinations of 30 nM FK866, 1 mM 2-HNA and 100 µM of test compounds). Each condition was performed in duplicate and the cells remained under treatment for a total of 20 h at 37 °C. Thereafter, the cell medium was removed and the cells were harvested and lysed with 0.6 M perchloric acid (PCA). Samples in PCA were neutralized by diluting the extracts in 100 mM sodium phosphate buffer (pH 8) and the total intracellular NAD^+ content was determined with a sensitive enzyme cycling assay that exploits the use of alcohol dehydrogenase. The obtained NAD^+ values were normalized to cell lysate protein content that was quantified by the Bradford method.

OVCAR-5 cells = assay: Cell viability assay (SRB): sensitization of OVCAR-5 cells to FK866; type: cell-based; conditions: for cell viability, single-agent treatment: 72 h, 100 nM FK866 alone or 1 mM 2-HNA alone; for combination index (CI) with FK866: 0.3 µM nicotinic acid in medium
Text: The first assay that we performed to test the putative NAPRT inhibitors was based on the principle that NAPRT-expressing OVCAR-5 cells are resistant to FK866 whereas the simultaneous chemical inhibition of NAPRT with 2-HNA renders the cells sensitive to the NAMPT inhibitor due to the cooperation between FK866 and 2-HNA in depleting the intracellular NAD pool. […] Thus, 2-HNA was used throughout the study as a positive control in our cell viability assay and any test compound resembling its activity was considered a potential NAPRT inhibitor. It is worth mentioning that, to reflect the physiological contribution of the Preiss–Handler pathway to NAD biosynthesis, all cell-based assays that are presented in this study were performed under a nicotinic acid concentration of 0.3 µM in the cell culture medium (Figure S1).
We decided to use combination index (CI) as a measure to determine the degree of interaction between FK866 and the test compounds i.e., to identify potential new NAPRT inhibitors. A CI < 1 indicates a synergistic interaction between the test compound and FK866 in decreasing cell viability. A CI = 1 and a CI > 1 are indicative of an additive and of an antagonistic effect, respectively.
A total of 3 × 10^3 OVCAR-5 cells/well were plated in 96-well plates in the regular culture medium. 24 h later the cell medium was removed and the cells were subsequently incubated either in the regular medium that was supplemented with 0.3 µM nicotinic acid (control wells) or in the treatment medium which contained 0.3 µM nicotinic acid and combinations of 100 nM FK866, 1 mM 2-HNA, and 100 µM of test compounds. Each condition was performed in triplicate and the cells remained under treatment for a total of 72 h at 37 °C. Thereafter, the culture plates were fixed with 10% trichloroacetic acid at 4 °C for 20 min, washed with cold water, and dried overnight. The plates were stained with 0.04% sulforhodamine B (SRB) in 1% acetic acid, washed four times with 1% acetic acid to remove the unbound dye, and dried overnight. Lastly, Trizma®-base 10 mM was added to the plates and cell viability was quantified by absorbance measurements on a Tecan Infinite® 200 PRO instrument.
To quantify the extent of the interaction between FK866 and the putative NAPRT inhibitors or 2-HNA, we applied the combination index (CI) equation that is depicted below:(1) CI=mortality % A+mortality % B /mortality % A+B where: ‘A’ refers to the treatment of cells with FK866 100 nM; ‘B’ refers to the treatment of cells with the test compound 100 µM or 2-HNA 1 mM; ‘A + B’ refers to the coadministration of FK866 100 nM and the test compound at 100 µM or 2-HNA 1 mM. A synergistic interaction is evidenced by CI < 1, additive effect produces CI close to 1, whereas CI > 1 corresponds to antagonistic effect.

recombinant hNAPRT [2] = biological target: T1, recombinant hNAPRT (Homo sapiens, UniProt Q6XQN6); assay: hNAPRT melting temperature determination (DSF); type: binding; conditions: 100 μM inhibitor, 5 μM hNAPRT
T1 construct: His-tag (C); made in house; host or cells: E. coli
T1 sequence (Q6XQN6 1-538): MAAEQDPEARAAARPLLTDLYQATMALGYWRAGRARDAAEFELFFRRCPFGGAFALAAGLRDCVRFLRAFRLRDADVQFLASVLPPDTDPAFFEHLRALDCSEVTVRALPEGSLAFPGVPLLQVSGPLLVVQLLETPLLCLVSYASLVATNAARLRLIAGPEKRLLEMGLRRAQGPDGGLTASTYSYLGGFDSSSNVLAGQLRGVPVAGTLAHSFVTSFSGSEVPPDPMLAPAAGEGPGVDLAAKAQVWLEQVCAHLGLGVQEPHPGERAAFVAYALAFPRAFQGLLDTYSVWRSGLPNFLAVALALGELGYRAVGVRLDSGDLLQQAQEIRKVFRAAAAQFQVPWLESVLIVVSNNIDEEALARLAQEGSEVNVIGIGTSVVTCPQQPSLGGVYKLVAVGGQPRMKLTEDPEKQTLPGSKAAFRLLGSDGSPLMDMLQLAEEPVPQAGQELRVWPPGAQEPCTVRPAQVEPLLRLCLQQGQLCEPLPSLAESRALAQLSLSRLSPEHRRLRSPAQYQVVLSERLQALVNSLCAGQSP
Method: With the purpose to provide support to the results that were obtained in the enzymatic activity assay, the ability of the new hNAPRT inhibitors to stabilize the protein through binding was evaluated via the measurement of the hNAPRT melting temperature in the presence or absence of the inhibitors at a 100 μM concentration. The resulting Tm shifts are depicted in Figure 5. […] A plausible explanation for this outcome is that larger compounds are more likely to establish a higher number of interactions and thus result in greater stabilization of a given protein.
Figure 5 NAPRT inhibitors MMB-128 and MMB-131 directly engage recombinant hNAPRT. Differential scanning fluorimetry (DSF) was used to determine the thermal stabilization of hNAPRT protein upon inhibitor binding. Recombinant hNAPRT protein was exposed to 100 μM hNAPRT inhibitors over a defined temperature gradient and the melting temperature Tm was calculated for each compound. The data are shown as means ± standard error of the means (SEM) of two technical replicates with three biological replicates each. * p < 0.05; unpaired t-test.
The melting temperature ™ of hNAPRT was determined through the differential scanning fluorimetry (DSF) technique. Triplicates of 100 μM of each test compound and DMSO were added to a 96-well clear bottom BioRad PCR plate. Subsequently, DSF protein buffer, containing 5 μM of recombinant hNAPRT protein and 5X SPYRO® Orange (S5692, Sigma-Aldrich) in 20 mM HEPES pH 7.5, 100 mM NaCl, 10 mM Mg-acetate, and 1 mM DTT was added. The plate was sealed and exposed to a temperature gradient from 20 to 95 °C in a BioRad CFX96 Real-Time System. The fluorescence for each temperature increment was measured at 465–580 nm with an excitation wavelength of 465 nm. The DSF templates that were provided by Niesen et al. were used for data analysis followed by GraphPad Prism 8 for statistical analysis of the generated data.

recombinant hNAPRT [3] = biological target: T1, recombinant hNAPRT; assay: hNAPRT inhibition assay (HPLC of NA and NAMN); type: biochemical; conditions: for IC50: 100 µM nicotinic acid, 200 µM PRPP, 45 min at 37 °C, formation of NAMN
Method: hNAPRT was expressed in E. coli with an N-terminal His-tag and purified as described above. The enzymatic reactions were carried out at 37 °C in standard reaction mixtures containing 50 mM Tris-HCl, pH 7.4, 10 mM KCl, 2 mM MgCl2, 100 µM nicotinic acid, 200 µM PRPP, 0.1 mg/mL purified recombinant hNAPRT, and the test compound at five different concentrations ranging from 20 µM to 1000 µM.
Blank mixtures without compounds but with equal amounts of DMSO were set in parallel and their rates fixed as 100% activity. NAPRT was pre-incubated with the compounds for 5 min and reactions were started by the addition of the enzyme substrates and stopped after 45 min of incubation by heating to 85 °C for 3 min. Following centrifugation of the reaction mix, the supernatant was analyzed by HPLC by injection into a reverse-phase column (XTerra MS C18 Column, 125Å, 5 μm, 4.6 × 150 mm, Waters). The eluted species were monitored at 260 nm and the peaks of nicotinic acid and nicotinic acid mononucleotide were quantified with reference to standard curves. The percentage of nicotinic acid conversion was calculated for each reaction and the IC50 values for the active compounds were determined with GraphPad Prism 8 software (GraphPad Software, S. Diego, CA, USA).

[4] = Preparation of 50 mM stock solution in DMSO; type: physicochemical
Method: As noted in the methodology section, a 50 mM stock solution in DMSO was prepared for each compound.
Compounds were obtained in mg quantity and subsequently dissolved in DMSO to prepare a 50 mM stock solution. The purity of all compounds was > 95%, as declared by vendors or collaborators.

[5] = test compound 100 µM + 100 nM FK866, 72 h

Structure (SMILES)	cytotoxicity in combination with FK866 (OVCAR-5 cells; [5])	Tm shift of hNAPRT (recombinant hNAPRT [2])	IC50 (recombinant hNAPRT [3]) [µM]	drop in NAD+ levels [1]	further results
COc1ccc2cc(C=O)c(O)nc2c1 [IM 43]	high cytotoxicity				interaction with FK866 in NAD+ reduction [1]: additive effects
O=C(Cn1c(=O)sc2ccccc21)Nc1cccc(C(=O)O)c1 [IM 49]	less pronounced cytotoxicity	remained unchanged	232		interaction with FK866 in NAD+ reduction [1]: lower degree of synergism; effect on intracellular NAD+ levels, compound alone ([1]; test compound 100 µM alone, 20 h): strongly reduced
OC1CNC(Cn2cc(-c3cc(C(F)(F)F)cc(C(F)(F)F)c3)nn2)C1O (stereo not drawn) [MMB-268]	high cytotoxicity			42.9–56.4%	inhibition of hNAPRT (recombinant hNAPRT [3]; data not shown): negligible inhibition
NCc1cc2c(cc1Cl)OCO2 [IM 29]	high cytotoxicity	remained unchanged	160	42.9–56.4%	potentiation of the effect of FK866 in reducing intracellular NAD levels ([1]; combination with FK866): more than two-fold
O=C(/C=C/c1cccnc1)NCCCCC1CCN(C(=O)c2ccccc2)CC1 [FK866, reference compound]					decrease of intracellular NAD+ levels ([1]; 30 nM FK866 alone, 20 h): 24%; cell viability, single-agent treatment (OVCAR-5 cells): withstood
Cc1cc(C(=O)O)nc(N)n1 [IM 28]					solubility in DMSO [4]: could not be solubilized
O=C(O)c1cccnc1O [Compound 2-HNA, 2-hydroxynicotinic acid, reference compound]					drop in intracellular NAD+ concentration ([1]; 1 mM 2-HNA + 30 nM FK866, 20 h): 86%; cytotoxicity of co-treatment with FK866 (OVCAR-5 cells; 1 mM 2-HNA + 100 nM FK866, 72 h): pronounced cell death; also recorded: marked cytotoxicity; combination index (CI) with FK866 (OVCAR-5 cells; 2-HNA 1 mM + 100 nM FK866, 72 h): 0.08; cell viability, single-agent treatment (OVCAR-5 cells): withstood
CC(C)(C)C(=O)OCCCn1cc(CCCN2CC(O)C(O)C2Cn2cc(-c3ccccc3)nn2)nn1 (stereo not drawn) [MMB-131]	less pronounced cytotoxicity	approximately 0.5 °C	242	42.9–56.4%	
CC(C)(C)C(=O)OCCCn1cc(CCCN2CC(O)C(O)C2CNC(=O)c2ccccc2)nn1 (stereo not drawn) [MMB-128]	high cytotoxicity	approximately 0.5 °C		42.9–56.4%	
COc1cc(OC)cc(-c2cn(CC3NCC(O)C3O)nn2)c1 (stereo not drawn) [MMB-312]	less pronounced cytotoxicity				interaction with FK866 in NAD+ reduction [1]: additive effects; combination index (CI) with FK866 (OVCAR-5 cells; test compound 100 µM + 100 nM FK866, 72 h, CI < 1 synergistic): 0.12
CC(Oc1ccccc1Cl)C(=O)Nc1cccc(C(=O)O)c1 (stereo not drawn) [IM 38]	less pronounced cytotoxicity	remained unchanged	265	42.9–56.4%	
